Measured values published in patent publication EP4603105A1, “PHARMACEUTICAL COMPOSITION CONTAINING CYCLIC COMPOUND HAVING SELECTIVE KRAS INHIBITORY EFFECT AGAINST HRAS AND NRAS” (CHUGAI SEIYAKU KABUSHIKI KAISHA, priority 2022, dated 2024).
*1 amine or outer side, *2 acyl side, *3 side chain or, on linkers, in order; H or OH if unused. Where a SMILES comes first, the peptide text is derived from it. Bridges are numbered along the chain shown (N, C = ends). [ ]: non-standard residue; d: D form. The star is where a group is joined. hPhe(3,5-F2-4-CF3) = N[C@@H](CCc1cc(F)c(C(F)(F)F)c(F)c1)C(=O)O; hPhe(3-Cl-4-CF3) = N[C@@H](CCc1ccc(C(F)(F)F)c(Cl)c1)C(=O)O; NPrPhe(4-CF3) = CCCN[C@@H](Cc1ccc(C(F)(F)F)cc1)C(=O)O; X41 = CCCN([C@@H](Cc1ccc(OC)cc1)C(=O)[*:2])[*:1]; X36 = CN([C@@H](CCCC=[*:3])C(=O)[*:2])[*:1]; dαMeAlg = C[C@](CC=[*:3])(N[*:1])C(=O)[*:2]; NMeGly(cPent) = CN[C@H](C(=O)O)C1CCCC1; Pro(4,4-F2) = O=C(O)[C@@H]1CC(F)(F)CN1; Hyp = O=C(O)[C@@H]1C[C@@H](O)CN1; NMeD = CN[C@@H](CC(=O)O)C(=O)O; Ac4c(3-oxa) = NC1(C(=O)O)COC1; NMeL = CN[C@@H](CC(C)C)C(=O)O; αMeL = CC(C)C[C@](C)(N)C(=O)O; Morpholide = C1CN(*)CCO1; NMeA = CN[C@@H](C)C(=O)O; Ac5c = NC1(C(=O)O)CCCC1; Aze = O=C(O)[C@@H]1CCN1; Ac4c = NC1(C(=O)O)CCC1; NEtG = CCNCC(=O)O; Sar = CNCC(=O)O

What was measured:
[1] = target: HRAS wild-type protein (Homo sapiens, UniProt P01112); test: Binding to HRAS by surface plasmon resonance (SPR), KD and KD ratio to KRAS
Summary of the method: (§1)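 Recombinant RAS proteins bearing a biotinylated Avi tag and loaded with GDP served as the captured ligand, recaptured fresh every cycle. Binding responses were referenced to an uncoated surface and a buffer-only blank cycle. Dissociation constants were obtained by 1:1 model fitting at 30°C.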

[2] = test system: human lung cancer strain NCI-H441; type: cell-based
Summary of the method: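 Signal came from […] measured per well once the reagent was added. Beforehand, cells were cultured at 37°C and 5% carbon dioxide on a compound series serially diluted in dimethyl sulfoxide.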

[3] = target: GDP-bound NRAS wild-type protein (Homo sapiens, UniProt P01111); test: Binding to NRAS by surface plasmon resonance (SPR), KD and KD ratio to KRAS
Summary of the method: as §1

[4] = ratio of the KD value with respect to HRAS wild-type protein to the KD value with respect to KRAS
[5] = ratio of the KD value with respect to GDP-bound NRAS wild-type protein to the KD value with respect to KRAS
[6] = ratio of KD value for HRAS wild-type protein to KD value for KRAS (SPR)
[7] = ratio of KD value for GDP-bound NRAS wild-type protein to KD value for KRAS (SPR)
[8] = ratio of KD for HRAS wild-type protein to KD for KRAS
[9] = ratio of KD for GDP-bound NRAS wild-type protein to KD for KRAS

Chain of HRAS wild-type protein (P01112 whole entry): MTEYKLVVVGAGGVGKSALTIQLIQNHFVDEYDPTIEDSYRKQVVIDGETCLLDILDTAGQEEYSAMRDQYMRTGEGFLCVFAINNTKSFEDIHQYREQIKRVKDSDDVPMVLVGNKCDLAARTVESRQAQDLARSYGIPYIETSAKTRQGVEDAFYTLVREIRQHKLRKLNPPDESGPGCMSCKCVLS
Chain of GDP-bound NRAS wild-type protein (P01111 whole entry): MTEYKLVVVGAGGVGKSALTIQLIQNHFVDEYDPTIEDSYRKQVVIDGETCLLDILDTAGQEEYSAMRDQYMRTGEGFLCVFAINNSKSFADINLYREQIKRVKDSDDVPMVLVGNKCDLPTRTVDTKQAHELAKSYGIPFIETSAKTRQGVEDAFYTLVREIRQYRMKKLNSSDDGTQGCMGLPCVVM

Structure (SMILES)	HRAS /KRAS [1, 4]	IC50 [2] [nM]	NRAS /KRAS [3, 5]	HRAS /KRAS [1, 6]	NRAS /KRAS [3, 7]	HRAS /KRAS [1, 8]	NRAS /KRAS [3, 9]
CC[C@H](C)[C@@H]1NC(=O)[C@H](C2CCC2)N(C)C(=O)C[C@@H](C(=O)N(C)CC)N(C)C(=O)[C@H](C2CCCC2)N(C)C(=O)C2(CC(C)(C)C2)NC(=O)[C@@H]2C[C@H](C)CN2C(=O)[C@H](CCc2ccc(C(F)(F)F)c(OC)c2)NC(=O)CN(C)C(=O)[C@H](Cc2ccc(C(F)(F)F)cc2)N2CC/C=C\C[C@@H](C2=O)N(C)C(=O)CN(C)C1=O [PP2009]	A (a compound having 10 or more and less than 20 is denoted as A)	19.7	A (a compound having 10 or more and less than 20 is denoted as A)				
CCO[C@@H]1C[C@H]2C(=O)NC3(CCC3)C(=O)N(C)[C@@H](C(CC)CC)C(=O)N(C)[C@H](C)CC(=O)N(C)[C@@H](CC3CC3)C(=O)N[C@@H]([C@@H](C)CC)C(=O)N(C)CC(=O)N(C)[C@H]3C/C=C\CCN(C3=O)[C@@H](Cc3ccc(F)cc3)C(=O)N(C)CC(=O)N[C@@H](CCc3cc(F)c(C(F)(F)F)c(F)c3)C(=O)N2C1 [PP1521]		173		B (a compound having 3 or more and less than 10 is denoted as B)	A (a compound having 10 or more and less than 20 is denoted as A)		
CCCN1C(=O)[C@@H]2CCN2C(=O)CN(C)C(=O)[C@H]([C@@H](C)CC)NC(=O)[C@H](CC(C)C)N(C)C(=O)C[C@@H](C(=O)N(C)C)NC(=O)[C@H](C2CCCC2)N(C)C(=O)C2(CCCC2)NC(=O)[C@@H]2C[C@@H](OCC)CN2C(=O)[C@H](CCc2ccc(C(F)(F)F)c(Cl)c2)NC(=O)CN(C)C(=O)[C@@H]1Cc1ccc(C(F)(F)F)cc1 [PP0389] ([NMeL]I[Sar][Aze][NPrPhe(4-CF3)][Sar][hPhe(3-Cl-4-CF3)][Hyp](Et)[Ac5c][NMeGly(cPent)]D-NMe2; lactam N-11)	B (a compound having 3 or more and less than 10 is denoted as B)	3	C (A compound having a KD ratio of 0.1 or more and less than 3 is denoted as C)				
CCC[C@H]1C(=O)N[C@@H]([C@@H](C)CC)C(=O)N(C)CC(=O)N(C)[C@H]2C/C=C\CCN(C2=O)[C@@H](Cc2ccc(C(F)(F)F)cc2)C(=O)N(C)CC(=O)N[C@@H](CCc2cc(Cl)c3sccc3c2)C(=O)N2C[C@H](OCC)C[C@H]2C(=O)NC2(CC(C)(C)C2)C(=O)N(C)[C@@H](C2CCCC2)C(=O)N(C)[C@H](C(=O)N(C)C)CC(=O)N1C [PP2946]		5.3				A (a compound having 10 or more and less than 20 is denoted as A)	A (a compound having 10 or more and less than 20 is denoted as A)
CCCN1C(=O)[C@@H]2CCN2C(=O)[C@H](C)N(C)C(=O)[C@H]([C@@H](C)CC)NC(=O)[C@H](CC(C)C)N(C)C(=O)C[C@@H](C(=O)N2CCOCC2)N(C)C(=O)[C@H](C2CCCC2)N(C)C(=O)C2(CCCC2)NC(=O)[C@@H]2CCCN2C(=O)[C@H](CCc2ccc(C(F)(F)F)c(Cl)c2)NC(=O)CN(C)C(=O)[C@@H]1Cc1ccc(OC)cc1 [PP0134] ([NMeL]I[NMeA][Aze][X41][Sar][hPhe(3-Cl-4-CF3)]P[Ac5c][NMeGly(cPent)][NMeD]-Morpholide; lactam N-11)		18.5				B (a compound having 3 or more and less than 10 is denoted as B)	C (A compound having a KD ratio of 0.1 or more and less than 3 is denoted as C)
CCCN(C)C(=O)[C@@H]1CC(=O)N(C)[C@@H](CC(F)F)C(=O)N[C@@H]([C@@H](C)CC)C(=O)N(C)CC(=O)N(C)[C@H]2C/C=C\CCN(C2=O)[C@@H](Cc2ccc(C(F)(F)F)cc2)C(=O)N(C)CC(=O)N[C@@H](CCc2cc(F)c(C(F)(F)F)c(F)c2)C(=O)N2C[C@H](OCC)C[C@H]2C(=O)NC2(CC(C)(C)C2)C(=O)N(C)[C@@H](C2CCCC2)C(=O)N1C [PP2030]	A (a compound having 10 or more and less than 20 is denoted as A)	4.5	A (a compound having 10 or more and less than 20 is denoted as A)				
CCCN1C(=O)CN(C)C(=O)CN(C)C(=O)[C@H]([C@@H](C)CC)NC(=O)[C@H](CC(C)C)N(C)C(=O)C[C@@H](C(=O)N2CCOCC2)N(C)C(=O)[C@H](C2CCCC2)N(C)C(=O)C2(CCC2)NC(=O)[C@@H]2CCCN2C(=O)[C@H](CCc2ccc(C(F)(F)F)c(Cl)c2)NC(=O)CN(C)C(=O)[C@@H]1Cc1ccc(C(F)(F)F)cc1 [PP0197] ([NMeL]I[Sar][Sar][NPrPhe(4-CF3)][Sar][hPhe(3-Cl-4-CF3)]P[Ac4c][NMeGly(cPent)][NMeD]-Morpholide; lactam N-11)		3.6				C (A compound having a KD ratio of 0.1 or more and less than 3 is denoted as C)	B (a compound having 3 or more and less than 10 is denoted as B)
CCCN1C(=O)CN(C)C(=O)CN(C)C(=O)[C@H]([C@@H](C)CC)NC(=O)[C@@H]2CCCC=CC[C@@](C)(NC(=O)[C@@H]3C[C@@H](OCC)CN3C(=O)[C@H](CCc3cc(F)c(C(F)(F)F)c(F)c3)NC(=O)CN(C)C(=O)[C@@H]1Cc1ccc(C(F)(F)F)cc1)C(=O)N(C)[C@@H](C1CCCC1)C(=O)N(C)[C@H](C(=O)N1CCOCC1)CC(=O)N2C [PP0901] ([X36]I[Sar][Sar][NPrPhe(4-CF3)][Sar][hPhe(3,5-F2-4-CF3)][Hyp](Et)[dαMeAlg][NMeGly(cPent)][NMeD]-Morpholide; staple 1-9; lactam N-11)		332				B (a compound having 3 or more and less than 10 is denoted as B)	B (a compound having 3 or more and less than 10 is denoted as B)
CC[C@H](C)[C@@H]1NC(=O)[C@H](CC(C)C)N(C)C(=O)C[C@@H](C(=O)N(C)C)N(C)C(=O)[C@H](C2CCCC2)N(C)C(=O)C2(CC(C)(C)C2)NC(=O)[C@@H]2CC(F)(F)CN2C(=O)[C@H](CCc2cc(F)c(C(F)(F)F)c(F)c2)NC(=O)CN(C)C(=O)[C@H](Cc2ccc(C(F)(F)F)cc2)N2CC/C=C\C[C@@H](C2=O)N(C)C(=O)CN(C)C1=O [PP1715]		2.7		A (a compound having 10 or more and less than 20 is denoted as A)	AA (a compound having 20 or more is denoted as AA)		
CCCN1C(=O)CN(C)C(=O)CN(C)C(=O)[C@H]([C@@H](C)CC)NC(=O)[C@H](CC(C)C)N(C)C(=O)C[C@@H](C(=O)N(C)C)N(C)C(=O)[C@H](C2CCCC2)N(C)C(=O)[C@](C)(CC(C)C)NC(=O)[C@@H]2CCCN2C(=O)[C@H](CCc2cc(F)c(C(F)(F)F)c(F)c2)NC(=O)CN(C)C(=O)[C@@H]1Cc1ccc(C(F)(F)F)cc1 [PP0738] ([NMeL]I[Sar][Sar][NPrPhe(4-CF3)][Sar][hPhe(3,5-F2-4-CF3)]P[αMeL][NMeGly(cPent)][NMeD]-NMe2; lactam N-11)	B (a compound having 3 or more and less than 10 is denoted as B)	99.2	B (a compound having 3 or more and less than 10 is denoted as B)				
CCCN1C(=O)CN(C)C(=O)CN(C)C(=O)[C@H]([C@@H](C)CC)NC(=O)[C@H](CC(C)C)N(C)C(=O)C[C@@H](C(=O)N(C)C)N(C)C(=O)[C@H](C2CCCC2)N(C)C(=O)C2(COC2)NC(=O)[C@@H]2CCCN2C(=O)[C@H](CCc2cc(F)c(C(F)(F)F)c(F)c2)NC(=O)CN(C)C(=O)[C@@H]1Cc1ccc(C(F)(F)F)cc1 [PP0744] ([NMeL]I[Sar][Sar][NPrPhe(4-CF3)][Sar][hPhe(3,5-F2-4-CF3)]P[Ac4c(3-oxa)][NMeGly(cPent)][NMeD]-NMe2; lactam N-11)	B (a compound having 3 or more and less than 10 is denoted as B)	57	B (a compound having 3 or more and less than 10 is denoted as B)				
CCCN1C(=O)CN(C)C(=O)CN(CC)C(=O)[C@H]([C@@H](C)CC)NC(=O)[C@H](CC(C)C)N(C)C(=O)C[C@@H](C(=O)N(C)C)NC(=O)[C@H](C2CCCC2)N(C)C(=O)C2(CCCC2)NC(=O)[C@@H]2CC(F)(F)CN2C(=O)[C@H](CCc2ccc(C(F)(F)F)c(Cl)c2)NC(=O)CN(C)C(=O)[C@@H]1Cc1ccc(C(F)(F)F)cc1 [PP0369] ([NMeL]I[NEtG][Sar][NPrPhe(4-CF3)][Sar][hPhe(3-Cl-4-CF3)][Pro(4,4-F2)][Ac5c][NMeGly(cPent)]D-NMe2; lactam N-11)		68.9				C (A compound having a KD ratio of 0.1 or more and less than 3 is denoted as C)	B (a compound having 3 or more and less than 10 is denoted as B)
C=CCN1CC(=O)N(C)[C@H]2C/C=C\CCN(C2=O)[C@@H](Cc2ccc(C)cc2)C(=O)N(C)CC(=O)N[C@@H](CCc2cc(F)c(C(F)(F)F)c(F)c2)C(=O)N2C[C@H](OCC)C[C@H]2C(=O)NC2(CC(C)(C)C2)C(=O)N(C)[C@@H](C2CCCC2)C(=O)N(C)[C@H](C(=O)N(C)C)CC(=O)N(C)[C@@H](CC(C)C)C(=O)N[C@@H]([C@@H](C)CC)C1=O [PP2050]	A (a compound having 10 or more and less than 20 is denoted as A)	7.5	A (a compound having 10 or more and less than 20 is denoted as A)				
CC[C@H](C)[C@@H]1NC(=O)[C@H](C)N(C)C(=O)C[C@@H](C(=O)N(C)C)N(C)C(=O)[C@H](C2CCCC2)N(C)C(=O)C2(CCC2)NC(=O)[C@@H]2CCCN2C(=O)[C@H](CCc2cc(F)c(C(F)(F)F)c(F)c2)NC(=O)CN(C)C(=O)[C@H](Cc2ccc(C(F)(F)F)cc2)N2CCCC[C@@H](C2=O)N(C)C(=O)CN(C)C1=O [PP0581]	B (a compound having 3 or more and less than 10 is denoted as B)	8	C (A compound having a KD ratio of 0.1 or more and less than 3 is denoted as C)				
